Ten compounds from PubChem BioAssay (NCI) can be followed below.

Each structure is given as a SMILES string.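 Following 48 hours of exposure in 96-well plates, responses at five concentrations were used to interpolate endpoints linearly. The concentration for full growth arrest is given as TGI.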 *1 amine or outer side, *2 acyl side, *3 side chain or, on linkers, in order; H or OH if unused. Where a SMILES comes first, the peptide text is derived from it. The star is where a group is joined. γGlu = O=C(O)[CH](CCC(=O)[*:2])N[*:1]; NHOH = ON*

Some test systems named below: CCRF-CEM leukemia; EKVX NSCLC; HCC-2998 colon; HCT-116 colon; K-562 leukemia; NCI-H460 lung; NCI-H522 lung; OVCAR-8 ovarian; RPMI-8226 leukemia; SK-MEL-2 melanoma; SN12C renal; U251 CNS; UO-31 renal.
Holding throughout (experiment): inhibition of tumour cell growth, NCI panel, 48 h

As to `CCOP(=O)(OCC)/C(C#N)=C/c1nc[nH]c1C`, the TGI in the test on CCRF-CEM leukemia, with EKVX NSCLC, in the test on HCC-2998 colon, with HCT-116 colon, in the test with K-562 leukemia and in the test with NCI-H460 lung was over 100 µM throughout. Moreover, the TGI in the test with NCI-H522 lung, in the test on OVCAR-8 ovarian, in the test on RPMI-8226 leukemia, with SK-MEL-2 melanoma, in the test with SN12C renal and with U251 CNS was over 100 µM each time. In the test on UO-31 renal, the TGI is over 100 µM.

Regarding `CCN(CC)c1c(-c2c(OC(C)C)c(=O)c2=O)c(=O)n2ccsc2c1OC(C)=O`, the TGI in the test on CCRF-CEM leukemia, with EKVX NSCLC, in the test on HCC-2998 colon, in the test with HCT-116 colon, in the test on K-562 leukemia and in the test with NCI-H460 lung was over 100 µM each time. Moreover, the TGI with NCI-H522 lung, in the test on OVCAR-8 ovarian, in the test on RPMI-8226 leukemia, in the test on SK-MEL-2 melanoma, in the test with SN12C renal and with U251 CNS was over 100 µM throughout. The compound also displayed a TGI with UO-31 renal of over 100 µM.

Turning to `CC(=O)N1N=C(c2ccccc2)NC(=O)C1c1cc(C)c(O)c(C)c1` (stereo not given), the TGI in the test with CCRF-CEM leukemia is over 100 µM; in the test on EKVX NSCLC it was 93.6 µM; with HCC-2998 colon, 45.9 µM; in the test on HCT-116 colon it was 54.1 µM; in the test on K-562 leukemia, over 100 µM; in the test with NCI-H460 lung it was over 100 µM. The TGI was 37 µM in the test with NCI-H522 lung; 31.4 µM in the test on OVCAR-8 ovarian; over 100 µM in the test on RPMI-8226 leukemia; 72.2 µM in the test on SK-MEL-2 melanoma; 79.1 µM in the test with SN12C renal; 35 µM in the test on U251 CNS. For the same compound, the TGI in the test on UO-31 renal stood at 48.9 µM.

In the case of `c1ccc(CCCN2C3CCC2CN(CCOC(c2ccccc2)c2ccccc2)C3)cc1`, the TGI in the test with CCRF-CEM leukemia was 39.2 µM; in the test with EKVX NSCLC, 19.9 µM; in the test on HCC-2998 colon it was 18 µM; in the test with HCT-116 colon, 19.8 µM; with K-562 leukemia it was 64 µM; in the test on NCI-H460 lung it was 25.8 µM. In addition, the TGI is 23 µM in the test with NCI-H522 lung; 23.5 µM in the test on OVCAR-8 ovarian; 7.83 µM in the test on RPMI-8226 leukemia; 22.9 µM with SK-MEL-2 melanoma; 24.8 µM in the test on SN12C renal; 20.6 µM in the test on U251 CNS. In the test on UO-31 renal, the TGI amounted to 24.8 µM.

On to `CCOC(=O)c1nc(SC)sc1NC(=O)c1ccc(OC)cc1`, for which the TGI in the test with CCRF-CEM leukemia is over 100 µM; in the test with EKVX NSCLC, over 100 µM; with HCC-2998 colon, over 100 µM; in the test with HCT-116 colon, 48.2 µM; in the test with K-562 leukemia it was over 100 µM; in the test with NCI-H460 lung, over 100 µM. Also, the TGI with NCI-H522 lung was over 100 µM; in the test on OVCAR-8 ovarian, over 100 µM; in the test with RPMI-8226 leukemia it was over 100 µM; in the test on SK-MEL-2 melanoma it was over 100 µM; with SN12C renal, over 100 µM; with U251 CNS, 55.4 µM. The TGI in the test on UO-31 renal is over 100 µM.

Consider `CCOC(=O)CCCN`, for which the TGI in the test on CCRF-CEM leukemia, with EKVX NSCLC, in the test with HCC-2998 colon, with HCT-116 colon, in the test with K-562 leukemia and with NCI-H460 lung was over 100 µM each time. Moreover, the TGI in the test with NCI-H522 lung, in the test on OVCAR-8 ovarian, with RPMI-8226 leukemia, in the test on SK-MEL-2 melanoma, in the test with SN12C renal and with U251 CNS was over 100 µM throughout. The compound further gave a TGI in the test on UO-31 renal of over 100 µM.

Regarding `CCOc1cc2c(cc1OC)c[n+](C)c1c3cc(OC)c(OC)cc3ccc21`, the TGI in the test on CCRF-CEM leukemia is over 65.8 µM; in the test with EKVX NSCLC, over 100 µM; in the test with HCC-2998 colon it was over 100 µM; in the test with HCT-116 colon, over 100 µM; with K-562 leukemia, over 49 µM; in the test on NCI-H460 lung, over 100 µM. Besides, the TGI is over 100 µM in the test on NCI-H522 lung; over 100 µM in the test on OVCAR-8 ovarian; over 100 µM in the test with RPMI-8226 leukemia; over 80.6 µM in the test on SK-MEL-2 melanoma; over 100 µM in the test on SN12C renal; over 48.2 µM in the test on U251 CNS. In the test on UO-31 renal, the TGI was over 100 µM.

In the case of `CN(C)CC1CCC/C(=C\c2ccc(Cl)c(Cl)c2)C1=O` (stereo not given), the TGI with CCRF-CEM leukemia turned out to be 2.68 µM; in the test on EKVX NSCLC it was 25.5 µM; with HCC-2998 colon, 25.5 µM; in the test with HCT-116 colon it was 3.96 µM; in the test with K-562 leukemia it was 5.47 µM; with NCI-H460 lung, 28 µM. The TGI in the test with NCI-H522 lung was found to be 4.1 µM; in the test on OVCAR-8 ovarian, 9.89 µM; with RPMI-8226 leukemia it was 1.03 µM; in the test on SK-MEL-2 melanoma, 16.8 µM; in the test on SN12C renal it was 8.79 µM; with U251 CNS, 6.52 µM. The TGI with UO-31 renal turned out to be 5.99 µM.

On to `COc1ccc(OC)c([N+](=O)[O-])c1-c1nc2sc(Cl)cn2c1/C=N/N=C(N)N`, for which the TGI in the test on CCRF-CEM leukemia was over 100 µM; in the test on EKVX NSCLC, 57 µM; in the test with HCC-2998 colon, 35.6 µM; in the test with HCT-116 colon, over 100 µM; in the test on K-562 leukemia, 56.3 µM; in the test on NCI-H460 lung, 56.8 µM. Further, the TGI with NCI-H522 lung was 37.9 µM; in the test on OVCAR-8 ovarian, 43.1 µM; with RPMI-8226 leukemia, over 100 µM; in the test with SK-MEL-2 melanoma, 38.8 µM; in the test with SN12C renal, 37.5 µM; with U251 CNS, over 100 µM. In addition, the TGI in the test on UO-31 renal is 33.1 µM.

For the compound `NC(CCC(=O)NC(CCC(=O)NO)C(=O)NCC(=O)O)C(=O)O` (stereo not given) (γGlu-Glu(NHOH)-Gly-OH; configuration not given here), the TGI in the test on CCRF-CEM leukemia, in the test on EKVX NSCLC, in the test with HCC-2998 colon, with HCT-116 colon, with K-562 leukemia and in the test with NCI-H460 lung was over 100 µM in each case. In addition, the TGI with NCI-H522 lung, in the test with OVCAR-8 ovarian, in the test with RPMI-8226 leukemia, in the test on SK-MEL-2 melanoma, with SN12C renal and in the test with U251 CNS was over 100 µM each time. The compound also came in with a TGI in the test on UO-31 renal of over 100 µM.
